We go through 2 compounds from patent US11325899B2, “Benzofurane and benzothiophene derivatives as PGE2 receptor modulators” (IDORSIA PHARMACEUTICALS LTD, priority 2017, dated 2022).

pIC50: −log10 of the molar value.

Format in all cases: cell-based
One assay has as its target T1, PTGER2 (EP2) (Homo sapiens, UniProt P43116).
T1 construct: host or cells: HEK 293 (PathHunter PTGER2 b-arrestin cell line)
The assay is described as follows: hEP2 b-arrestin assay (PathHunter HEK 293 PTGER2 b-arrestin cells). As to conditions: antagonistic activity, beta-arrestin assay; read-out: hEP2 b-arr IC50. An outline of the steps: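 Antagonism measured as inhibition of PGE2-driven β-arrestin 2 recruitment (enzyme fragment complementation, luminescence) in engineered HEK293 EP2 cells. Agonist: 5 μM PGE2, ~EC80, 120 min at 37 °C after 15 min compound preincubation; test range 10 μM-2 nM or 1 μM-0.2 nM, duplicates, IC50 fitted.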

The target in a further assay is T2, EP2 receptor (Homo sapiens, UniProt P43116).
T2 construct: SF295 glioblastoma cells express high endogenous EP2 and no EP4; host or cells: SF295 glioblastoma cells
The assay is described as follows: hEP2 cAMP assay (SF295 glioblastoma cells, HTRF cAMP, PGE2 stimulation). The following applies: antagonistic activity. As to the method:
(§1) The antagonistic activities of the compounds of formula (I) on the EP2 and EP4 receptors are also determined in accordance with the following experimental method.
(§2) Human tumor cell lines expressing endogenously either EP4 or EP2 are used and cAMP accumulation in cells upon PGE2 stimulation is monitored. SF295 glioblastoma cells express high endogenous EP2 and no EP4, whereas BT549 breast cancer cells, express high endogenous EP4 levels and very low EP2 levels.
(§3) As a detection method for cAMP the HTRF (homogeneous time resolved fluorescence) Cisbio kit (HTRF cAMP dynamic 2 kit 20′000 tests Cisbio Cat. #62AM4PEC) was used, which is based on a competitive immunoassay using a Cryptate-labeled anti-cAMP antibody and d2-labeled cAMP. Native cAMP produced by cells or unlabeled cAMP (for the standard curve) compete with exogenously added d2-labeled cAMP (acceptor) for binding to monoclonal anti-cAMP-Eu3+ Cryptate (donor). A FRET signal (Fluorescence Resonance Energy Transfer) is obtained only if the labeled anti-cAMP antibody binds the d2 labelled cAMP, thus the specific signal (i.e. energy transfer) is inversely proportional to the concentration of cAMP in the standard or sample.
The SF295 cells (NCI/No. 0503170) are detached from culture dishes with a cell dissociation buffer (Invitrogen, 13151-014), and collected in growing medium (GM: RPM1640 (Invitrogen 21875)/10% FCS, 1% Penicilin/streptomycin). Cells are counted washed and resuspended in assay buffer (AB; HBSS, 20 mM HEPES, 0.2% BSA; 2 mM IBMX). 4′000 cells in 5 μl of AB are seeded per well of a small volume 384 well plate (black with flat bottom, Greiner 784076).
Stock solutions of test compounds are made at a concentration of 10 mM in DMSO, and serially diluted in DMSO to concentrations required for inhibition dose response curves (tested concentration range 30 μM-0.4 nM; 30 μM-0.015 nM or 1 μM-0.01 nM).
PGE2 (Cayman 14010, stock solution: 75 μM in DMSO) is used as agonist at 75 nM final concentration, corresponding to EC80.
Two point five microliters of diluted compounds are transferred into the assay plate. Plate is pre-incubated 45 minutes at room temperature. Subsequently, 2.5 microliters of PGE2 (final conc. 75 nM) are transferred into the assay plate. Plate is incubated 30 minutes at room temperature. Five μl of each donor (anti-cAMP cryptate) and acceptor (cAMP-d2) are added and the plate is incubated another hour at room temperature in the dark and then read using a BMG LABTECH PHERAstar reader (Excitation: 337 nm, Emission: 620 and 665 nm).
The obtained Delta F (fluorescence) values (665 nm/620 nM) are converted into % cAMP values using the measurements of the cAMP calibrator provided in the kit. For each compound concentration the percentage of cAMP compared to DMSO control value as average±STDEV (each concentration is measured in duplicate) is calculated.
(§4) IC50 values and curves are generated with XLfit software (IDBS) using Dose-Response One Site model 203. When compounds were measured multiple times, mean values are given.
For orientation: Changes in cAMP serve as a functional read-out for many G protein-coupled receptors.

The target of a further assay is T3, EP4 receptor (Homo sapiens, UniProt P35408).
T3 construct: BT549 breast cancer cells, express high endogenous EP4 levels and very low EP2 levels; host or cells: BT549 breast cancer cells
As to the kind of experiment: hEP4 cAMP assay (BT549 breast cancer cells, HTRF cAMP, PGE2 stimulation). As to conditions: antagonistic activity, PGE2 6 nM (EC80). As to the method: as §1, §2, §3
The BT549 cells (NCI/No. 0507282) are detached from culture dishes with a cell dissociation buffer (Invitrogen, 13151-014), and collected in growing medium (GM: RPMI1640 (Invitrogen 21875)/10% FCS, 1% Penicilin/streptomycin). Cells are counted washed and resuspended in assay buffer (AB; HBSS, 20 mM HEPES, 0.2% BSA; 2 mM IBMX). 4′000 cells in 5 μl of AB are seeded per well of a small volume 384 well plate (black with flat bottom, Greiner 784076).
Stock solutions of test compounds are made at a concentration of 10 mM in DMSO, and serially diluted in DMSO to concentrations required for inhibition dose response curves (tested concentration range 30 μM-0.4 nM; 30 μM-0.015 nM or 1 uM-0.01 nM).
PGE2 (Cayman 14010, stock solution: 6 μM in DMSO) is used as agonist at 6 nM final concentration, corresponding to EC80.
Two point five microliters of diluted compounds are transferred into the assay plate. Plate is pre-incubated 45 minutes at room temperature. Subsequently, 2.5 microliters of PGE2 (final conc. 6 nM) are transferred into the assay plate. Plate is incubated 30 minutes at room temperature. Five μl of each donor (anti-cAMP cryptate) and acceptor (cAMP-d2) are added and the plate is incubated another hour at room temperature in the dark and then read using a BMG LABTECH PHERAstar reader (Excitation:337 nm, Emission:620 and 665 nm).
The obtained Delta F(fluorescence) values (665 nm/620 nM) are converted into % cAMP values using the measurements of the cAMP calibrator provided in the kit. For each compound concentration the percentage of cAMP compared to DMSO control value as average±STDEV (each concentration is measured in duplicate) is calculated.
as §4

T1 sequence (P43116 whole entry): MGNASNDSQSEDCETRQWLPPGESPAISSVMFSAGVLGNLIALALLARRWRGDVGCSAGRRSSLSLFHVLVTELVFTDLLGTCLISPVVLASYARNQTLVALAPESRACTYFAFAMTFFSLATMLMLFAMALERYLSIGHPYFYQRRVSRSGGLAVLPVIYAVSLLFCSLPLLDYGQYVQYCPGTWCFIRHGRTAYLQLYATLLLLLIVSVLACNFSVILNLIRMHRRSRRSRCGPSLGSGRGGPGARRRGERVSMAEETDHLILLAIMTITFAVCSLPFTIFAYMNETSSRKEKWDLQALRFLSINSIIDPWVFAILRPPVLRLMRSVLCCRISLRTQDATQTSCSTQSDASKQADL
T2 sequence (P43116 whole entry): as above
T3 sequence (P35408 whole entry): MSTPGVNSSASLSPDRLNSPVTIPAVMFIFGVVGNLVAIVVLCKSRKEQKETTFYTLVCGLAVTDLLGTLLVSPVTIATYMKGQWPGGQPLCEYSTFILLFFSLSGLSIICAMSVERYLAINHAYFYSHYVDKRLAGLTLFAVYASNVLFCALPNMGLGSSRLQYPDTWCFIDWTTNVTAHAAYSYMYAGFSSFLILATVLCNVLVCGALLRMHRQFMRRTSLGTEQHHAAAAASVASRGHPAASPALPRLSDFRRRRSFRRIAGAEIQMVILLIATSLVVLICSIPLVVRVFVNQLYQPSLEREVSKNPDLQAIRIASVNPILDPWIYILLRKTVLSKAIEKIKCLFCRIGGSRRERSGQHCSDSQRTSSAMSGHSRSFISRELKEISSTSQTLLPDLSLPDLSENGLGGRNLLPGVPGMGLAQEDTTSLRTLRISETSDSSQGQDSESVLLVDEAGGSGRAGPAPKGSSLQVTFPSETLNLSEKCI

On to `CCOc1cc(-c2cc(NCCc3c(C)oc4c(C)cc(F)cc34)ncn2)ccc1OCC(=O)O` [Example 124, (2-Ethoxy-4-{6-[2-(5-fluoro-2,7-dimethyl-benzofuran-3-yl)-ethylamino]-pyrimidin-4-yl}-phenoxy)-acetic acid], for which the pIC50 on PTGER2 (EP2) is 7.59; against EP2 receptor, 6.94; against EP4 receptor, 6.51.

`CCOc1cc(-c2cc(NCCc3c(C)sc4c(C)cc(F)cc34)ncn2)ccc1NC(=O)C(=O)O` [Example 145, N-(2-Ethoxy-4-{6-[2-(5-fluoro-2,7-dimethyl-benzo[b]thiophen-3-yl)-ethylamino]-pyrimidin-4-yl}-phenyl)-oxalamic acid]: the pIC50 on PTGER2 (EP2) is 7.89; against EP2 receptor, 7.12; against EP4 receptor it was 6.57.

In general, pIC50 refers to the IC50 on a negative log10 scale, so that one unit is a factor of ten.
